Structures are written as SMILES. Where only a bound is given, the exact number is not on record here.

The assay in a line: Compound was tested for the inhibition of PTP-epsilon at the concentration 100 uM.
For `CN(C)c1ccc(C(NC(=O)c2ccc(C(F)(F)P(=O)(O)O)cc2)C(=O)NCc2ccccc2)cc1` (stereo not drawn), the inhibition was more than 50%. Compound `CCCCCC(NC(=O)c1ccc(C(F)(F)P(=O)(O)O)cc1)C(=O)NCc1ccccc1` (stereo not drawn) had an inhibition of more than 50%. Next, `O=C(NC(C(=O)NCc1ccccc1)c1ccc(Oc2ccccc2)cc1)c1ccc(C(F)(F)P(=O)(O)O)cc1` (stereo not drawn): more than 50%.
